Source: patent US20230355599A1, “BIOMARKERS FOR CBL, AND COMPOSITIONS AND METHODS FOR THEIR USE” (NURIX THERAPEUTICS, INC., priority 2022, published 2023)

Test system: phosphorylated PLCγ2
Assay: Phosphorylated PLCγ2 in cynomolgus macaque CD8+ T cells from whole blood in vitro (flow cytometry)
Format: cell-based
Settings: Macaca fascicularis, T-cell, whole blood from six cynomolgus macaques, 2 hrs 37° C., 2 μg/mL anti-CD3 & anti-CD28 + crosslinker 60 minutes, read-out: Average mean EC50±standard deviation, phosphorylated PLCγ2
Procedure: To assess these candidate clinical proximal biomarkers of Cbl-b inhibition on T cells, pharmacodynamic analysis was performed. Whole blood was obtained from cynomolgus macaque donors, then incubated with increasing concentrations of Compound 23. The response to Cbl-b inhibition on phosphorylated HS1, ZAP70 and PLCγ2 was measured in CD8^+ T cells using flow cytometry. This technique is highly quantitative and can measure multiple phosphorylation markers in different cell populations within the same sample.
DMSO (Dimethyl sulfoxide) was used to reconstitute Compound 23. Final concentration of DMSO was 0.05% in media for in vitro assays. […]
Stained cells were run on an Attune NxT Acoustic Focusing Flow Cytometer (Thermo Fisher, cat. No. A29004), and data was analyzed using FlowJo (v10.6.1) and GraphPad Prism (v8.00) software. Single lymphocytes were gated for CD8^+ cells (CD45^+/CD8^+) cells, and population frequencies were calculated for each population. The data is quantified by the percent positive. […] As protein becomes phosphorylated the fluorescence increases resulting in a larger fraction of the cells entering that gate. Each population was evaluated for % positive pY759-PLCγ2, pY397-HS1 levels, pY319/Syk (Y352)-ZAP70 levels.

With `C[C@H]1CCCN(Cc2cc3c(c(C(F)(F)F)c2)CN(c2cccc([C@]4(c5nncn5C)C[C@@H](C)C4)c2)C3=O)C1` [Compound 23] the EC50 was 121 ± 37.4 nM.
